Values joined by “and” are separate entries in the source; they are usually repeats but may differ in a detail not shown here. Equal values may be shown once. Toxic doses and inconclusive results are not listed. No stated cut-off is given here; in the data, active means T/C of 150% or more; inactive means T/C below 125%.
System: L1210 leukemia ip in BDF1 mice, survival T/C
Assay: NCI In Vivo Anticancer Drug Screen. Data for tumor model L1210 Leukemia (intraperitoneal) in B6D2F1 (BDF1) mice
Conditions: endpoint: mean survival time, higher = longer survival
Experimental: The antitumor activity of compounds was measured in mice bearing transplantable tumors. Survival or tumor size were measured and the results are expressed as the measurement made in the treated group (T) divided by the measurement made in the vehicle treated control group (C). The tumor model used in this assay is L1210 Leukemia (intraperitoneal) in B6D2F1 (BDF1) mice

[1] = dose: 100.0 mg/kg/injection, schedule: Q01DX009 (ip), vehicle: saline with Tween-80
[2] = dose: 200.0 mg/kg/injection, schedule: Q01DX009 (ip), vehicle: saline with Tween-80
[3] = dose: 400.0 mg/kg/injection, schedule: Q01DX009 (ip), vehicle: saline with Tween-80
[4] = dose: 100.0 mg/kg/injection, schedule: Q01DX001 (ip), vehicle: saline
[5] = dose: 200.0 mg/kg/injection, schedule: Q01DX001 (ip), vehicle: saline
[6] = dose: 400.0 mg/kg/injection, schedule: Q01DX001 (ip), vehicle: saline
[7] = dose: 25.0 mg/kg/injection, schedule: Q01DX009 (ip), vehicle: Klucel (hydroxypropylcellulose) (HPC)
[8] = dose: 25.0 mg/kg/injection, schedule: Q04DX003 (ip), vehicle: Klucel (hydroxypropylcellulose) (HPC)
[9] = dose: 50.0 mg/kg/injection, schedule: Q01DX009 (ip), vehicle: Klucel (hydroxypropylcellulose) (HPC)
[10] = dose: 50.0 mg/kg/injection, schedule: Q04DX003 (ip), vehicle: Klucel (hydroxypropylcellulose) (HPC)
[11] = dose: 100.0 mg/kg/injection, schedule: Q01DX009 (ip), vehicle: Klucel (hydroxypropylcellulose) (HPC)
[12] = dose: 100.0 mg/kg/injection, schedule: Q04DX003 (ip), vehicle: Klucel (hydroxypropylcellulose) (HPC)
[13] = dose: 200.0 mg/kg/injection, schedule: Q01DX009 (ip), vehicle: Klucel (hydroxypropylcellulose) (HPC)
[14] = dose: 200.0 mg/kg/injection, schedule: Q04DX003 (ip), vehicle: Klucel (hydroxypropylcellulose) (HPC)
[15] = dose: 400.0 mg/kg/injection, schedule: Q01DX009 (ip), vehicle: Klucel (hydroxypropylcellulose) (HPC)
[16] = dose: 400.0 mg/kg/injection, schedule: Q04DX003 (ip), vehicle: Klucel (hydroxypropylcellulose) (HPC)
[17] = dose: 100.0 mg/kg/injection, schedule: Q04DX002 (ip), vehicle: saline with Tween-80
[18] = dose: 100.0 mg/kg/injection, schedule: Q04DX003 (ip), vehicle: saline with Tween-80
[19] = dose: 200.0 mg/kg/injection, schedule: Q04DX002 (ip), vehicle: saline with Tween-80
[20] = dose: 200.0 mg/kg/injection, schedule: Q04DX003 (ip), vehicle: saline with Tween-80
[21] = dose: 400.0 mg/kg/injection, schedule: Q04DX002 (ip), vehicle: saline with Tween-80
[22] = dose: 400.0 mg/kg/injection, schedule: Q04DX003 (ip), vehicle: saline with Tween-80
[23] = dose: 10.0 mg/kg/injection, schedule: Q01DX001 (ip), vehicle: saline
[24] = dose: 5.0 mg/kg/injection, schedule: Q01DX001 (ip), vehicle: saline
[25] = dose: 20.0 mg/kg/injection, schedule: Q01DX001 (ip), vehicle: saline

Measured: T/C

C/C=C\c1ccc(OCCOC(=O)Nc2ccc(Cl)cc2C(F)(F)F)c(OC)c1
inactive: [1] 91 % of control | [2] 96 % of control | [3] 89 % of control

CCOC=N
inactive: dose: 50.0 mg/kg/injection, schedule: Q01DX001 (ip), vehicle: saline 95 % of control | [4] 95 % of control | [5] 97 % of control | [6] 101 % of control

CCN=C(Nc1cccc(C2=NCCN2)c1)c1ccc(C(=NCC)Nc2cccc(C3=NCCN3)c2)cc1
inactive: dose: 2.0 mg/kg/injection, schedule: Q01DX Z (ip), vehicle: carboxymethylcellulose (CMC) 109 % of control | dose: 4.0 mg/kg/injection, schedule: Q01DX Z (ip), vehicle: carboxymethylcellulose (CMC) 95 % of control | dose: 8.0 mg/kg/injection, schedule: Q01DX Z (ip), vehicle: carboxymethylcellulose (CMC) 103 % of control | dose: 16.0 mg/kg/injection, schedule: Q01DX Z (ip), vehicle: carboxymethylcellulose (CMC) 107 % of control

O=C1CN(O)C(c2ccccc2)=c2cc(Cl)ccc2=N1
inactive: [7] 100 % of control | [8] 98 % of control | [9] 101 % of control | [10] 108 % of control | [11] 95 % of control | [12] 90 % of control | [13] 92 % of control | [14] 93 % of control | [15] 108 % of control | [16] 98 % of control

O=C1c2cc(Cl)ccc2-c2c1cc(Cl)cc2[N+](=O)[O-]
inactive: [12] 100 % of control | [14] 104 % of control | [16] 98 % of control

CCOc1ccccc1NC(=S)NC(=O)CCc1ccccc1
inactive: [1] 102 % of control and 104 % of control | [17] 104 % of control | [18] 105 % of control | [2] 93 % of control and 108 % of control | [19] 98 % of control | [20] 97 % of control | [3] 97 % of control and 89 % of control | [21] 91 % of control | [22] 89 % of control

COc1ccc(/C=N/NC(=O)c2ccc(Cl)c(Cl)c2)cc1
inactive: [11] 91 % of control | [13] 100 % of control | [15] 90 % of control

O=C1C(Cl)=C(Cl)C(=O)c2cc(Cl)c(Cl)cc21
inactive: [23] 93 % of control

CC(=O)Nc1ccc(NC(=O)c2ccc(Cl)cc2)cc1
inactive: dose: 50.0 mg/kg/injection, schedule: Q01DX001 (ip), vehicle: saline with Tween-80 95 % of control | dose: 100.0 mg/kg/injection, schedule: Q01DX001 (ip), vehicle: saline with Tween-80 95 % of control | [1] 97 % of control and 87 % of control | [17] 90 % of control and 91 % of control | [18] 92 % of control | dose: 200.0 mg/kg/injection, schedule: Q01DX001 (ip), vehicle: saline with Tween-80 90 % of control | [2] 95 % of control and 97 % of control | [19] 93 % of control and 97 % of control | [20] 89 % of control | dose: 400.0 mg/kg/injection, schedule: Q01DX001 (ip), vehicle: saline with Tween-80 87 % of control | [3] 97 % of control and 90 % of control | [21] 90 % of control and 92 % of control | [22] 87 % of control

C=C(NC(C)=O)C(O)c1ccc([N+](=O)[O-])cc1 (centres undefined)
inactive: dose: 50.0 mg/kg/injection, schedule: Q01DX001 (ip), vehicle: carboxymethylcellulose (CMC) 96 % of control | dose: 100.0 mg/kg/injection, schedule: Q01DX001 (ip), vehicle: carboxymethylcellulose (CMC) 100 % of control and 90 % of control | [11] 95 % of control | [12] 101 % of control | dose: 200.0 mg/kg/injection, schedule: Q01DX001 (ip), vehicle: carboxymethylcellulose (CMC) 94 % of control and 97 % of control | [13] 93 % of control | [14] 98 % of control | dose: 400.0 mg/kg/injection, schedule: Q01DX001 (ip), vehicle: carboxymethylcellulose (CMC) 100 % of control and 87 % of control | [15] 95 % of control | [16] 95 % of control

CC(=O)[O][Hg][CH]1CCC2OC1CC[CH]2[Hg][O]C(C)=O (centres undefined)
inactive: dose: 12.5 mg/kg/injection, schedule: Q01DX009 (ip), vehicle: Klucel (hydroxypropylcellulose) (HPC) 97 % of control | [7] 94 % of control | [8] 91 % of control | [9] 96 % of control | [10] 98 % of control

c1ccc(CNC(Cc2ccccc2)c2ccc(OCc3ccccc3)cc2)cc1 (centres undefined)
inactive: [11] 93 % of control | [13] 89 % of control | [15] 89 % of control

O=C1C(N2CCCCC2)=C(c2ccccc2)c2ccccc21
inactive: [4] 92 % of control | [5] 94 % of control | [6] 102 % of control

C/C(=C/c1ccc([N+](=O)[O-])cc1)C(=O)O
inactive: [11] 96 % of control | [13] 115 % of control | [15] 107 % of control

O=C(O)/C(Br)=C\c1cccc([N+](=O)[O-])c1
inactive: [4] 107 % of control | [5] 98 % of control | [6] 109 % of control

[Cl][Hg][S]C1CCCC1
inactive: [24] 106 % of control | [23] 101 % of control | [25] 101 % of control

c1ccc2c(CCCCc3nccc4ccccc34)nccc2c1
inactive: dose: 100.0 mg/kg/injection, schedule: Q04DX002 (ip), vehicle: Klucel (hydroxypropylcellulose) (HPC) 102 % of control | dose: 200.0 mg/kg/injection, schedule: Q04DX002 (ip), vehicle: Klucel (hydroxypropylcellulose) (HPC) 97 % of control | dose: 400.0 mg/kg/injection, schedule: Q04DX002 (ip), vehicle: Klucel (hydroxypropylcellulose) (HPC) 89 % of control

O=C(C[n+]1ccccc1)c1cn(Cc2ccccc2)c2ccccc12
inactive: dose: 75.0 mg/kg/injection, schedule: Q01DX001 (ip), vehicle: other 98 % of control | dose: 150.0 mg/kg/injection, schedule: Q01DX001 (ip), vehicle: other 97 % of control

CCc1cccc[n+]1CC(=O)c1ccccc1
inactive: dose: 6.25 mg/kg/injection, schedule: Q01DX009 (ip), vehicle: saline 95 % of control | dose: 12.5 mg/kg/injection, schedule: Q01DX009 (ip), vehicle: saline 98 % of control | dose: 25.0 mg/kg/injection, schedule: Q04DX003 (ip), vehicle: saline 96 % of control

CCC1([N+](=O)[O-])COP(=O)(OC(=O)c2ccc([N+](=O)[O-])cc2)OC1 (centres undefined)
inactive: [4] 91 % of control | [5] 91 % of control | [6] 92 % of control

CCCCCCC12CCC(O)C1(CCCCCCC(=O)O)O2 (centres undefined)
inactive: dose: 50.0 mg/kg/injection, schedule: Q04DX002 (ip), vehicle: saline 95 % of control | dose: 100.0 mg/kg/injection, schedule: Q04DX002 (ip), vehicle: saline 102 % of control | dose: 200.0 mg/kg/injection, schedule: Q04DX002 (ip), vehicle: saline 91 % of control

CCCCC(=O)C1CN(C(C)(C)C)C1
inactive: [24] 102 % of control | dose: 5.0 mg/kg/injection, schedule: Q01DX009 (ip), vehicle: saline 104 % of control | [23] 97 % of control | dose: 10.0 mg/kg/injection, schedule: Q01DX009 (ip), vehicle: saline 111 % of control | [25] 102 % of control | dose: 20.0 mg/kg/injection, schedule: Q01DX009 (ip), vehicle: saline 97 % of control

C/C=C(\Br)C(=O)O
inactive: dose: 100.0 mg/kg/injection, schedule: Q04DX002 (ip), vehicle: other 104 % of control | [18] 92 % of control | dose: 200.0 mg/kg/injection, schedule: Q04DX002 (ip), vehicle: other 104 % of control

O=C(O)C1C2C3CC(C4CC43)C12 (centres undefined)
inactive: [1] 96 % of control | dose: 100.0 mg/kg/injection, schedule: Q04DX003 (ip), vehicle: saline 96 % of control | [2] 106 % of control | dose: 200.0 mg/kg/injection, schedule: Q04DX003 (ip), vehicle: saline 93 % of control | [3] 96 % of control | dose: 400.0 mg/kg/injection, schedule: Q04DX003 (ip), vehicle: saline 100 % of control
